This passage reports IC50 results from patent US20160176867A1, “MODIFIED BET-PROTEIN-INHIBITING DIHYDROQUINOXALINONES AND DIHYDROPYRIDOPYRAZINONES” (BAYER PHARMA AKTIENGESELLSCHAFT, priority 2013, published 2016).

SMILES strings stand for the structures.

Test [1] has as its target T1, BRD4 bromo domain 1 [BRD4(1)] (Homo sapiens, UniProt O60885).
T1 construct: N-terminally His6-tagged BRD4(1) (amino acids 67-152); made in house; host or cells: E. coli
The experiment in a line: BRD4/acetylated peptide H4 binding assay (TR-FRET), BRD4 bromo domain 1. The conditions noted are these: inhibition of BRD4(1)/Ac-H4 peptide interaction. In short, it runs like this: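 TR-FRET (665/620 nm ratio) measuring displacement of biotinylated tetra-acetylated H4 peptide from His6-BRD4(1) (aa 67-152, E. coli; typically 10 nM) at pH 7.5. Compound (11 concentrations, 0.1 nM–20 μM, duplicates) was preincubated 10 min at 22°C, then 1 h at 22°C and ≥3 h at 4°C; IC50 from 4-parameter fit normalized to DMSO and no-BRD4 controls.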

For test [2], the target named is T2, BRD4 bromo domain 2 [BRD4(2)] (Homo sapiens, UniProt O60885).
T2 construct: N-terminally His6-tagged BRD4(2) (amino acids 357-445); made in house; host or cells: E. coli
The experiment in a line: BRD4/acetylated peptide H4 binding assay (TR-FRET), BRD4 bromo domain 2. The conditions noted are these: inhibition of BRD4(2)/Ac-H4 peptide interaction. An outline of the steps: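 Binding of His6-BRD4(2) (aa 357-445, 100 nM final) to biotinylated tetra-acetylated H4 peptide read by TR-FRET (665/620 nm). Compound preincubated 10 min at 22 °C, then 1 h at 22 °C plus ≥3 h at 4 °C. Eleven concentrations (0.1 nM–20 μM) in duplicate; IC50 by 4-parameter fit.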
For orientation: Time-resolved FRET reads energy transfer from a long-lived donor to a nearby acceptor.

As a reminder, the IC50 is the midpoint of a concentration-inhibition curve. A lower IC50 goes with greater potency. `COc1c(Nc2ccc3c(n2)N(C2CCOCC2)[C@H](C)C(=O)N3C)cccc1C(=O)NC1CCN(C)CC1` [Example 103, 3-{[(3R)-1,3-dimethyl-2-oxo-4-(tetrahydro-2H-pyran-4-yl)-1,2,3,4-tetrahydropyrido[2,3-b]pyrazin-6-yl]amino}-2-methoxy-N-(1-melhylpiperidin-4-yl)benzamide]: the IC50 was 810 nM in test [1] and 518 nM in test [2].
For the compound `C[C@@H]1C(=O)N(C)c2ccc(Nc3cccc(C(=O)N(C)C)c3)cc2N1C1CCN(C(=O)OC(C)(C)C)CC1` [Example 105, tert-butyl 4-[(2R)-7-{[3-(dimethylcarbamoyl)phenyl]amino}-2,4-dimethyl-3-oxo-3,4-dihydroquinoxalin-1(2H)-yl]piperidine-1-carboxylate], the results for the IC50 in test [1] and in test [2] were 208 nM and 598 nM, respectively.
As to `C[C@@H]1C(=O)N(C)c2ccc(Nc3cccc(C(=O)N4CCN(C)CC4)c3)cc2N1C1CCOCC1` [Example 106, (3R)-1,3-dimethyl-6-({3-[(4-methylpiperazin-1-yl)carbonyl]phenyl}amino)-4-(tetrahydro-2H-pyran-4-yl)-3,4-dihydroquinoxalin-2(1H)-one], the results for the 50% inhibitory concentration (IC50) in test [1] and in test [2] were 357 nM and 817 nM, respectively.
Consider `C[C@@H]1C(=O)N(C)c2ccc(Nc3cccc(C(=O)N(C)C)c3)cc2N1Cc1ccccc1` [Example 107, 3-{[(3R)-4-benzyl-1,3-dimethyl-2-oxo-1,2,3,4-tetrahydroquinoxalin-6-yl]amino}-N,N-dimethylbenzamide], for which the values for the IC50 in test [1] and in test [2] were 385 nM and 117 nM, respectively.
The like results for `C[C@@H]1C(=O)N(C)c2ccc(Nc3cccc(C(=O)N[C@H]4CC[C@H](N5CCN(CC6CC6)CC5)CC4)c3)cc2N1C1CCOCC1` [Example 108, N-{trans-4-[4-(cyclopropylmethyl)piperazin-1-yl]cyclohexyl}-3-{[(3R)-1,3-dimethyl-2-oxo-4-(tetrahydro-2H-pyran-4-yl)-1,2,3,4-tetrahydroquinoxalin-6-yl]amino}benzamide] were, in that order, 575 nM and 520 nM.
As to `C[C@@H]1C(=O)N(C)c2ccc(Nc3cccc(C(=O)NC4CCN(C)CC4)c3)cc2N1C1CCOCC1` [Example 109, 3-{[(3R)-1,3-dimethyl-2-oxo-4-(tetrahydro-2H-pyran-4-yl)-1,2,3,4-tetrahydroquinoxalin-6-yl]amino}-N-(1-methylpiperidin-4-yl)benzamide], the results for the IC50 in test [1] and in test [2] were 521 nM and 1120 nM, respectively.
On to `CC1C(=O)N(C)c2ccc(N(C)c3cccc(S(=O)(=O)N(C)C)c3)cc2N1Cc1ccccc1` (stereo not drawn) [Example 110, 3-[(4-benzyl-1,3-dimethyl-2-oxo-1,2,3,4-tetrahydroquinoxalin-6-yl)(methyl)amino]-N,N-dimethylbenzenesulphon-amide], for which the IC50 amounted to 1290 nM in test [1] and 320 nM in test [2].
With `C[C@@H]1C(=O)N(C)c2ccc(Nc3cccc(S(=O)(=O)NCCN(C)C)c3)nc2N1C1CCNCC1` [Example 128, N-[2-(dimethylamino)ethyl]-3-{[(3R)-1,3-dimethyl-2-oxo-4-(piperidin-4-yl)-1,2,3,4-tetrahydropyrido[2,3-b]pyrazin-6-yl]amino}-benzenesulphonamide], the IC50 in test [1] was 66 nM; in test [2], 137 nM.
In the case of `C[C@@H]1C(=O)N(C)c2ccc(Nc3cccc(C(=O)N4CCN(C)CC4)c3)nc2N1C1CCNCC1` [Example 130, (3R)-1,3-dimethyl-6-({3-[(4-methylpiperazin-1-yl)carbonyl]phenyl}amino)-4-(piperidin-4-yl)-3,4-dihydropyrido[2,3-b]pyrazin-2(1H)-one], the IC50 in test [1] came out at 206 nM; in test [2] it was 178 nM.
